Where two headings read alike, the source gives them in different places.
What was measured:
adult subjects with TRD [1] = system: adult subjects with TRD
adult subjects with TRD [2] = format: in vivo, human; details: for Non-responders % / Non-responders N / Responders % (MADRS total score reduction >50% TRD2001, ≥50% TRD2002) / Responders N (MADRS total score reduction >50% TRD2001, ≥50% TRD2002): after first infusion (Day 2 TRD2001, Day 3 or 4 TRD2002); for Clinical response associated with Met allele of Val66Met rs6265: acute, single dose administration
Method: (§1) Association between changes in MADRS total score from baseline and the SNP rs6265 after a single dose was evaluated in placebo subjects and active subjects using an ANCOVA model under a dominant model with baseline MADRS total score, and grouped genotype (Val/Val or Met carrier). A statistically significant result was found in active subjects (p=0.02).
as §1, with “the % responders” for “changes in MADRS total score from baseline”, “a logistic regression” for “an ANCOVA”, “score” for “score,”, “(p=0.03).” for “(p=0.02).”
Association between the % remitters and the SNP rs6265 after a single dose was evaluated in placebo subjects and as well as in active subjects using a logistic regression model under a dominant model with baseline MADRS total score and grouped genotype (Val/Val or Met carrier).

[3] = all subjects, Met carriers (of 7)
[4] = Met carriers (of 6), esketamine subjects per Day 1 randomization
[5] = Met carriers, DAY 02, randomized to esketamine Day 1
[6] = Met carriers, DAY 07, randomized to esketamine Day 1
[7] = Met carriers, DAY 07, randomized to placebo Day 1, esketamine from day 4 onward
[8] = Met carriers, DAY 17, randomized to esketamine Day 1
[9] = Met carriers, DAY 17, randomized to placebo Day 1, esketamine from day 4 onward
[10] = Met carriers, DAY 35, randomized to esketamine Day 1
[11] = Met carriers, DAY 35, randomized to placebo Day 1, esketamine from day 4 onward
[12] = Met carriers, Day 0 after Day 17, all responders (Day 17)
[13] = Met carriers, Day 0 after Day 17, esketamine responders (Day 17) per Day 1 randomization
[14] = Met carriers, Day 4 after Day 17, all responders (Day 17)
[15] = Met carriers, Day 4 after Day 17, esketamine responders (Day 17) per Day 1 randomization
[16] = Met carriers, Day 18 after Day 17, all responders (Day 17)
[17] = Met carriers, Day 18 after Day 17, esketamine responders (Day 17) per Day 1 randomization
[18] = Val/Val (of 7), esketamine subjects per Day 1 randomization, 18 days after last dose
[19] = Val/Val, DAY 02, randomized to esketamine Day 1
[20] = Val/Val, DAY 07, randomized to esketamine Day 1
[21] = Val/Val, DAY 07, randomized to placebo Day 1, esketamine from day 4 onward
[22] = Val/Val, DAY 17, randomized to esketamine Day 1
[23] = Val/Val, DAY 17, randomized to placebo Day 1, esketamine from day 4 onward
[24] = Val/Val, DAY 35, randomized to esketamine Day 1
[25] = Val/Val, DAY 35, randomized to placebo Day 1, esketamine from day 4 onward
[26] = Val/Val, Day 0 after Day 17, all responders (Day 17)
[27] = Val/Val, Day 0 after Day 17, esketamine responders (Day 17) per Day 1 randomization
[28] = Val/Val, Day 11 after Day 17, all responders (Day 17)
[29] = esketamine subjects, Days 2, 7, 17 and 35

## CNC1(c2ccccc2Cl)CCCCC1=O (racemic) [Ketamine, ketamine]
Adult subjects with TRD [1]; [3]
  Day 17 responders who maintained response status up to Day 35, %: 42.9%
  Day 17 responders who maintained response status up to Day 35, number: 3
Adult subjects with TRD [1]; all subjects, Val/Val (of 12)
  Day 17 responders who maintained response status up to Day 35, %: 91.7%
  Day 17 responders who maintained response status up to Day 35, number: 11
Adult subjects with TRD [1]; among all subjects (Val/Val and Met carriers)
  Responders on Day 17, number: 19
Adult subjects with TRD [1]; among all subjects, Met carriers
  Responders on Day 17, number: 7
Adult subjects with TRD [1]; among all subjects, Val/Val
  Responders on Day 17, number: 12
Adult subjects with TRD [2]; Met carriers
  Non-responders %: 92.3%
  Non-responders N: 12
  Responders % (MADRS total score reduction >50% TRD2001, ≥50% TRD2002): 7.7%
  Responders N (MADRS total score reduction >50% TRD2001, ≥50% TRD2002): 1
Adult subjects with TRD [2]; Val/Val
  Non-responders %: 71.4%
  Non-responders N: 15
  Responders % (MADRS total score reduction >50% TRD2001, ≥50% TRD2002): 28.6%
  Responders N (MADRS total score reduction >50% TRD2001, ≥50% TRD2002): 6
Adult subjects with TRD [2]
  Clinical response associated with Met allele of Val66Met rs6265: smaller clinical response

## CN[C@]1(c2ccccc2Cl)CCCCC1=O.Cl [Esketamine, (S)-2-(2-chlorophenyl)-2-(methylamino)cyclohexanone hydrochloride]
Adult subjects with TRD [1]; Day 35
  Maintenance of remission, Val/Val vs Met carriers: Remission was maintained longer in Val/Val than in Met carriers
Adult subjects with TRD [1]; Met carrier group, at Day 21, from 6
  Subjects who remained well, number: 3
Adult subjects with TRD [1]; [4]
  Day 17 responders who maintained response status up to Day 35, %: 33.3%
  Day 17 responders who maintained response status up to Day 35, number: 2
Adult subjects with TRD [1]; [5]
  Non-remitters %: 88.9%
  Non-remitters No.: 8
  Non-responders %: 88.9%
  Non-responders No.: 8
  Remitters % (MADRS total score 10): 11.1%
  Remitters No. (MADRS total score 10): 1
  Responders % (MADRS total score reduction >50%): 11.1%
  Responders No. (MADRS total score reduction >50%): 1
Adult subjects with TRD [1]; [6]
  Non-remitters %: 77.8%
  Non-remitters No.: 7
  Non-responders %: 66.7%
  Non-responders No.: 6
  Remitters % (MADRS total score 10): 22.2%
  Remitters No. (MADRS total score 10): 2
  Responders % (MADRS total score reduction >50%): 33.3%
  Responders No. (MADRS total score reduction >50%): 3
Adult subjects with TRD [1]; [7]
  Non-remitters %: 100.0%
  Non-remitters No.: 1
  Non-responders No.: 0
  Remitters No. (MADRS total score 10): 0
  Responders % (MADRS total score reduction >50%): 100.0%
  Responders No. (MADRS total score reduction >50%): 1
Adult subjects with TRD [1]; [8]
  Non-remitters %: 77.8%
  Non-remitters No.: 7
  Non-responders %: 33.3%
  Non-responders No.: 3
  Remitters % (MADRS total score 10): 22.2%
  Remitters No. (MADRS total score 10): 2
  Responders % (MADRS total score reduction >50%): 66.7%
  Responders No. (MADRS total score reduction >50%): 6
Adult subjects with TRD [1]; [9]
  Non-remitters No.: 0
  Non-responders No.: 0
  Remitters % (MADRS total score 10): 100.0%
  Remitters No. (MADRS total score 10): 1
  Responders % (MADRS total score reduction >50%): 100.0%
  Responders No. (MADRS total score reduction >50%): 1
Adult subjects with TRD [1]; [10]
  Non-remitters %: 77.8%
  Non-remitters No.: 7
  Non-responders %: 55.6%
  Non-responders No.: 5
  Remitters % (MADRS total score 10): 22.2%
  Remitters No. (MADRS total score 10): 2
  Responders % (MADRS total score reduction >50%): 44.4%
  Responders No. (MADRS total score reduction >50%): 4
Adult subjects with TRD [1]; [11]
  Non-remitters No.: 0
  Non-responders No.: 0
  Remitters % (MADRS total score 10): 100.0%
  Remitters No. (MADRS total score 10): 1
  Responders % (MADRS total score reduction >50%): 100.0%
  Responders No. (MADRS total score reduction >50%): 1
Adult subjects with TRD [1]; [12]
  Duration of response, survival function estimate: Failure: 0
  Duration of response, survival function estimate: Survival: 1.0000
Adult subjects with TRD [1]; [13]
  Duration of response, survival function estimate: Failure: 0
  Duration of response, survival function estimate: Survival: 1.0000
Adult subjects with TRD [1]; [14]
  Duration of response, survival function estimate: Failure: 0.4286
  Duration of response, survival function estimate: Survival: 0.5714
Adult subjects with TRD [1]; [15]
  Duration of response, survival function estimate: Failure: 0.5000
  Duration of response, survival function estimate: Survival: 0.5000
Adult subjects with TRD [1]; [16]
  Duration of response, survival function estimate: Failure: 0.5714
  Duration of response, survival function estimate: Survival: 0.4286
Adult subjects with TRD [1]; [17]
  Duration of response, survival function estimate: Failure: 0.6667
  Duration of response, survival function estimate: Survival: 0.3333
Adult subjects with TRD [1]; [18]
  Day 17 responders who maintained response status up to Day 35, %: 100%
  Day 17 responders who maintained response status up to Day 35, number: 7
Adult subjects with TRD [1]; [19]
  Non-remitters %: 37.5%
  Non-remitters No.: 3
  Non-responders %: 25.0%
  Non-responders No.: 2
  Remitters % (MADRS total score 10): 62.5%
  Remitters No. (MADRS total score 10): 5
  Responders % (MADRS total score reduction >50%): 75.0%
  Responders No. (MADRS total score reduction >50%): 6
Adult subjects with TRD [1]; [20]
  Non-remitters %: 25.0%
  Non-remitters No.: 2
  Non-responders %: 25.0%
  Non-responders No.: 2
  Remitters % (MADRS total score 10): 75.0%
  Remitters No. (MADRS total score 10): 6
  Responders % (MADRS total score reduction >50%): 75.0%
  Responders No. (MADRS total score reduction >50%): 6
Adult subjects with TRD [1]; [21]
  Non-remitters %: 42.9%
  Non-remitters No.: 3
  Non-responders %: 28.6%
  Non-responders No.: 2
  Remitters % (MADRS total score 10): 57.1%
  Remitters No. (MADRS total score 10): 4
  Responders % (MADRS total score reduction >50%): 71.4%
  Responders No. (MADRS total score reduction >50%): 5
Adult subjects with TRD [1]; [22]
  Non-remitters %: 12.5%
  Non-remitters No.: 1
  Non-responders %: 12.5%
  Non-responders No.: 1
  Remitters % (MADRS total score 10): 87.5%
  Remitters No. (MADRS total score 10): 7
  Responders % (MADRS total score reduction >50%): 87.5%
  Responders No. (MADRS total score reduction >50%): 7
Adult subjects with TRD [1]; [23]
  Non-remitters %: 57.1%
  Non-remitters No.: 4
  Non-responders %: 28.6%
  Non-responders No.: 2
  Remitters % (MADRS total score 10): 42.9%
  Remitters No. (MADRS total score 10): 3
  Responders % (MADRS total score reduction >50%): 71.4%
  Responders No. (MADRS total score reduction >50%): 5
Adult subjects with TRD [1]; [24]
  Non-remitters %: 12.5%
  Non-remitters No.: 1
  Non-responders %: 12.5%
  Non-responders No.: 1
  Remitters % (MADRS total score 10): 87.5%
  Remitters No. (MADRS total score 10): 7
  Responders % (MADRS total score reduction >50%): 87.5%
  Responders No. (MADRS total score reduction >50%): 7
Adult subjects with TRD [1]; [25]
  Non-remitters %: 42.9%
  Non-remitters No.: 3
  Non-responders %: 42.9%
  Non-responders No.: 3
  Remitters % (MADRS total score 10): 57.1%
  Remitters No. (MADRS total score 10): 4
  Responders % (MADRS total score reduction >50%): 57.1%
  Responders No. (MADRS total score reduction >50%): 4
Adult subjects with TRD [1]; [26]
  Duration of response, survival function estimate: Failure: 0
  Duration of response, survival function estimate: Survival: 1.0000
Adult subjects with TRD [1]; [27]
  Duration of response, survival function estimate: Failure: 0
  Duration of response, survival function estimate: Survival: 1.0000
Adult subjects with TRD [1]; [28]
  Duration of response, survival function estimate: Failure: 0.0833
  Duration of response, survival function estimate: Survival: 0.9167
Adult subjects with TRD [1]; Val/Val, by Day 35, of 7
  Subjects who remain well, number: 7
Adult subjects with TRD [1]; all esketamine subjects per Day 1 randomization (Val/Val and Met carriers)
  Responders on Day 17, number: 13
Adult subjects with TRD [1]; [29]
  Remit rates, Val/Val vs Met carriers: remit rates were higher in Val/Val subjects than in Met carriers at all timepoints
  Response rates, Val/Val vs Met carriers: response rates were higher in Val/Val subjects than in Met carriers
Adult subjects with TRD [2]; Met carriers
  Non-responders %: 88.9%
  Non-responders N: 8
  Responders % (MADRS total score reduction >50% TRD2001, ≥50% TRD2002): 11.1%
  Responders N (MADRS total score reduction >50% TRD2001, ≥50% TRD2002): 1
Adult subjects with TRD [2]; Val/Val
  Non-responders %: 25.0%
  Non-responders N: 2
  Responders % (MADRS total score reduction >50% TRD2001, ≥50% TRD2002): 75.0%
  Responders N (MADRS total score reduction >50% TRD2001, ≥50% TRD2002): 6
Adult subjects with TRD [2]
  Clinical response associated with Met allele of Val66Met rs6265: smaller clinical response
